Source: PubChem BioAssay (NCI)
Several values for one entry are separate records, joined by “and”; a condition that tells them apart may be missing. Equal values may be shown once.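 Cultured in 96-well plates, cells were exposed to test compound for 48 hours across five concentrations. GI50 is the concentration that inhibits growth by half. At the TGI there is no net growth.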

Columns and labels:
Test in all cases: inhibition of tumour cell growth, NCI panel, 48 h
NCI-H23 lung = system: NCI-H23 lung
SF-295 CNS = system: SF-295 CNS
K-562 leukemia = system: K-562 leukemia
OVCAR-5 ovarian = system: OVCAR-5 ovarian
KM12 colon = system: KM12 colon
HCC-2998 colon = system: HCC-2998 colon
DLD-1 colon = system: DLD-1 colon
SF-268 CNS = system: SF-268 CNS
NCI/ADR-RES ovarian = system: NCI/ADR-RES ovarian
MDA-MB-231 breast = system: MDA-MB-231 breast

| SMILES | TGI (NCI-H23 lung) | TGI (SF-295 CNS) | TGI (K-562 leukemia) [µM] | TGI (OVCAR-5 ovarian) | TGI (KM12 colon) [µM] | TGI (HCC-2998 colon) [µM] | TGI (DLD-1 colon) | TGI (SF-268 CNS) [µM] | GI50 (NCI-H23 lung) [µM] | GI50 (NCI/ADR-RES ovarian) [µM] | TGI (NCI/ADR-RES ovarian) | GI50 (SF-295 CNS) [µM] | GI50 (K-562 leukemia) | GI50 (OVCAR-5 ovarian) [µM] | GI50 (KM12 colon) | GI50 (HCC-2998 colon) [µM] | GI50 (DLD-1 colon) | GI50 (SF-268 CNS) [µM] | TGI (MDA-MB-231 breast) [µM] |
| --- | --- | --- | --- | --- | --- | --- | --- | --- | --- | --- | --- | --- | --- | --- | --- | --- | --- | --- | --- |
| Cc1nc2c(n1-c1ccccc1)C(=O)c1ccccc1C2=O | > 100 µM | > 100 µM | > 100 | > 100 µM | > 100 | > 100 | > 100 µM | > 100 | – | – | – | – | – | – | – | – | – | – | – |
| CS(=O)(=O)[O-].CS(=O)(=O)[O-].NC1CCCCC1N.[Pt+4] (stereo not given) | > 100 µM | > 100 µM | > 100 | > 100 µM | > 100 | > 100 | > 100 µM | > 100 | 88 | > 55.2 | > 100 µM | > 100 | 79.1 µM | > 100 | > 100 µM | > 100 | > 100 µM | > 65.9 | – |
| CCC1(OC(=O)CN)C(=O)OCc2c1cc1n(c2=O)Cc2cc3cc4c(cc3nc2-1)OCO4 (stereo not given) | 0.119 µM and 0.0337 µM | 0.0211 µM and < 0.01 µM | > 100 | 0.114 µM and 0.219 µM | – | 1.08 | 40.5 µM and > 100 µM | > 100 | < 0.01 | < 0.01 | 0.231 µM and 0.0889 µM | < 0.01 | 0.0512 µM and 0.0225 µM | < 0.01 | 0.126 µM and 0.187 µM | 0.101 | 0.278 µM and 0.203 µM | < 0.01 | – |
| Cn1c(=O)n(CC2CS2)c2ccccc21 (stereo not given) | – | > 100 µM | > 100 | > 100 µM | > 100 | > 100 | > 100 µM | > 100 | – | – | – | – | – | – | – | – | – | – | – |
| O=C1C(Cl)=C(c2ccc([N+](=O)[O-])cc2)C(=O)c2c(O)cccc21 | 4.14 µM | 8.19 µM | > 100 | 5.98 µM | 3.63 | 6.24 | 2.55 µM | 22.4 | – | – | 17.1 µM | – | – | – | – | – | – | – | 3.13 |
| O=C(O)Cc1ccccc1CCc1ccccc1Cl | > 100 µM | > 100 µM | > 100 | > 100 µM | > 100 | > 100 | > 100 µM | > 100 | – | – | – | – | – | – | – | – | – | – | – |
| C[C@]12CCC(=O)C=C1CC[C@@H]1[C@@H]2[C@@H](O)C[C@@]2(C)[C@H]1CC[C@]2(O)C(=O)COC(=O)CCC1CCCC1 | > 100 µM | > 100 µM | – | > 100 µM | > 100 | > 100 | > 100 µM | > 100 | – | – | – | – | – | – | – | – | – | – | – |
| O=C(O)COc1cc(-c2ccccc2)nc2ccccc12 | > 100 µM | > 100 µM | > 100 | > 100 µM | > 100 | > 100 | – | > 100 | – | – | > 100 µM | – | – | – | – | – | – | – | > 100 |
| C=CCc1ccccc1C1CC2(C(=O)OC)OC1C(C(=O)OC)=C2C(=O)OC (stereo not given) | > 10 µM | > 10 µM | > 10 | > 10 µM | > 10 | > 10 | – | > 10 | – | – | > 10 µM | – | – | – | – | – | – | – | > 10 |
| CCCCCCCCCCCCCCCCCCNC(=O)OCC(CNS(=O)(=O)CCC[n+]1cccc2ccccc21)COC (stereo not given) | 5.6 µM | 30.3 µM | > 100 | 6.09 µM | – | – | 27.5 µM | > 20.4 | – | – | 34.2 µM | – | – | – | – | – | – | – | 4.05 |
| CC1=CC[C@](C)(O)[C@@]2(C)CC[C@H]3C(=C(C)C)C(=O)C[C@]3(C)C[C@H]12 | > 50 µM | > 50 µM | 17 | > 50 µM | > 50 | > 50 | – | > 50 | – | – | > 50 µM | – | – | – | – | – | – | – | > 50 |
| Cn1ccc2c(c1=O)C(=O)OC2(C)C | > 100 µM | > 100 µM | > 100 | > 100 µM | > 100 | > 100 | – | > 100 | – | – | > 100 µM | – | – | – | – | – | – | – | > 100 |
| CCN1CCCn2c(=O)[nH]c3cc(Br)cc1c32 | > 100 µM | > 100 µM | > 100 | > 100 µM | > 100 | > 100 | – | > 100 | – | – | > 100 µM | – | – | – | – | – | – | – | > 100 |
| CCN(CC)C1Oc2cc3c(cc2C(c2cc(OC)c(OC)c(OC)c2)C1C)OCO3 (stereo not given) | > 49 µM | 10 µM | 11.1 | > 47.8 µM | 30.7 | 19.8 | – | > 58.2 | – | – | 0.771 µM | – | – | – | – | – | – | – | 65.9 |
| COc1cc(CNC(=S)CCCCCCCCCCC(C)C)ccc1O | > 100 µM | > 100 µM | > 100 | > 100 µM | 94.4 | > 100 | – | > 100 | – | – | > 100 µM | – | – | – | – | – | – | – | > 100 |
| Cc1cn(CCOCCOC(=O)NC(CCCNC(N)=O)C(=O)O)c(=O)[nH]c1=O (stereo not given) | > 100 µM | > 100 µM | > 100 | > 100 µM | > 100 | > 100 | – | > 100 | – | – | > 100 µM | – | – | – | – | – | – | – | > 100 |
